Data as given in US12059409B1, “Pharmaceutical composition for modified release” (ASTELLAS PHARMA INC., priority 2008, dated 2024).

Assay: Clinical trial of compound A in conventional formulations (not published)
Settings: human, in vivo; read-out: elimination half-life (T1/2)
Source text: These problems are considered to be raised by, for example, the changes in pharmacokinetics caused by food, and therefore, the development of a formulation capable of avoiding the effects by food intake is desired.
Taking into consideration the results of the clinical trial described above, the present inventors conducted intensive studies to design the formulation by paying attention to the control of a release rate of the drug from a formulation to the extent that the release is not affected by food intake or the like, rather than the addition of release control.
On the basis of blood concentration profiles (in a fasted state/after the intake of food) after administration of a conventional formulation (rapid release formulation), the absorption rate of the drug in a fed state was calculated by a deconvolution method to predict continuous absorption for about 4 hours.

half-life: 18 to 24 h
Compound: Nc1nc(CC(=O)Nc2ccc(CCNC[C@H](O)c3ccccc3)cc2)cs1 [compound A, (R)-2-(2-aminothiazol-4-yl)-4′-[2-[(2-hydroxy-2-phenylethyl)amino]ethyl]acetic acid anilide]
